Source: US8623909B2, “Prophylactic/therapeutic agents for lifestyle-related diseases” (priority 2008, dated 2014)
Marks after values point to notes of the source that are not given here.

Legend:
[1] = target: T1, GFP-AR (Homo sapiens, UniProt P10275); test: Subnuclear localization of GFP-AR in LNCaP cells; type: cell-based; set-up: expressed in transfected cells; host or cells: LNCaP cells; details: 10^−5 M, observed 3 hours later, FIG. 2
T1 sequence (P10275 1-920): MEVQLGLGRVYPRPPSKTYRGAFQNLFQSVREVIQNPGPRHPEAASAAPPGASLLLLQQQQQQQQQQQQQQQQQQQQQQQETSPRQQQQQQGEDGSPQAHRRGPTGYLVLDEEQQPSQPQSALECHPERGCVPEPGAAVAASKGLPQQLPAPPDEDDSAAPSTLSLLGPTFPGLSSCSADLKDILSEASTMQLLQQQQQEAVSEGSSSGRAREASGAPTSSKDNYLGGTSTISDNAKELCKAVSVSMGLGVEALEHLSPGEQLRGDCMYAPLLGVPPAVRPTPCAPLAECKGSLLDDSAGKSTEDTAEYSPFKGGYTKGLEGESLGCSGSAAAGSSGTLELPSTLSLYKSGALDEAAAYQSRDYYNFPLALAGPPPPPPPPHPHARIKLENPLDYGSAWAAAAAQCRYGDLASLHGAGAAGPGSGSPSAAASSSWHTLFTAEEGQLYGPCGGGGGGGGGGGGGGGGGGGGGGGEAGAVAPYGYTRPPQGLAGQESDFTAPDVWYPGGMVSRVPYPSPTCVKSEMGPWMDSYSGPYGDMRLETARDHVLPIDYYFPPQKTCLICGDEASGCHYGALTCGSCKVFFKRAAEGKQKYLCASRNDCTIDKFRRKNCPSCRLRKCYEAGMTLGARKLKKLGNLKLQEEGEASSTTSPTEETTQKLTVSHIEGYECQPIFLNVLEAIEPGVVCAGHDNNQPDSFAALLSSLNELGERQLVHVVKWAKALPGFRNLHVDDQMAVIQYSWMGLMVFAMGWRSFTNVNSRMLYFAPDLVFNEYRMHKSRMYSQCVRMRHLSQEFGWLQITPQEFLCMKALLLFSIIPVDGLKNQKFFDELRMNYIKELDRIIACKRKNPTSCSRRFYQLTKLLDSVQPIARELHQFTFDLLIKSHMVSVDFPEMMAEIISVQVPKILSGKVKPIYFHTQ

[2] = test system: B6 mice on high-fat diet; test: Glucose tolerance test in high-fat diet B6 mice; type: in vivo, mouse; details: high-fat diet mice after 16 weeks, glucose 1 g/kg
Experimental: (§1) 9-week-old B6 mice were divided into a control group, high-fat diet group and high-fat diet+compound of formula (Ia) group of 10 animals each, and housed and observed for 16 weeks. During this period, the compound of formula (Ia) was subcutaneously injected at 10 mg/kg every other day, body weights were measured once a week, and food intake was measured once every 4 weeks.
In addition, glucose tolerance tests were also carried out on the mice after housing for 16 weeks. The mice were divided into groups of 5 mice each, injected at 1 g/kg, and glucose value was then measured over time.

[3] = target: T1, GFP-AR; test: Subnuclear localization of GFP-AR in NIH-3T3-L1 cells; type: cell-based, mouse; set-up: expressed in transfected cells; host or cells: NIH-3T3-L1 cells; details: 10^−5 M, FIG. 4
[4] = test system: PSA mRNA in LNCaP cells; test: PSA mRNA expression level in LNCaP cells (real-time PCR); type: cell-based, human; details: 10^−5M, 24 hours, control (DMSO) 1.0
Experimental: (§2) 1) Extraction of Total RNA
(§3) After respectively culturing the LNCaP cells and NIH-3T3-L1 cells co-transfected in 1) to 3) above in 6-well plates, the cells were cultured for 24 hours in EMEM or RPMI 1640 containing 10% fetal calf serum treated with dextran-charcoal and a test compound (dissolved in a small amount of DMSO). Subsequently, total RNA was respectively extracted using Isogen (Wako Pure Chemical Industries).
(§4) 5 μg aliquots of each total RNA obtained in 1) above were reverse-transcribed to first strand cDNA using a Superscript III Kit (Invitrogen) and brought to a final volume of 20 μL. Real-time PCR was carried out using LightCycler FastStart DNA Master SYBR Green I (Roche Diagnostic) in order to quantify expression of PSA mRNA in LNCaP cells and UCP-1 mRNA in NIH-3T3-L1 cells. PCR was carried out under the following conditions in 20 μL of reaction mixture: 50 cycles consisting of denaturing for 3 seconds at 95° C., annealing for 10 seconds at 60° C. and elongating for 25 seconds at 72° C. β-actin mRNA was also simultaneously amplified for use as an internal standard. Real-time PCR value for each transcription product were calculated as a relative ratio to β-actin.

[5] = test system: UCP-1 mRNA in NIH-3T3-L1 cells; test: UCP-1 mRNA expression level in NIH-3T3-L1 cells (real-time PCR); type: cell-based, mouse; details: 10^−5M, 24 hours, control (DMSO) 1.0
Experimental: as §2, §3, §4

[6] = test system: B6 mice on high-fat diet; test: High-fat diet B6 mice, 16 weeks (body weight, serum glucose, serum insulin, food intake, visceral fat); type: in vivo, mouse; details: 10 mg/kg s.c. every other day
Experimental: as §1
After 16 weeks, the body weights, bone mineral densities, fat distributions and exercise levels of the mice were measured, followed by collecting blood samples and finally sacrificing the animals and collecting their organs. The average value of body weight, serum glucose concentration and serum insulin concentration of each group after 16 weeks are shown in the following Table 17.

CC(=O)[C@H]1CCC2C3CCc4c(C)cccc4C3CC[C@@]21C (stereo partly shown) [Compound of formula (Ia)]
GFP-AR nuclear translocation and foci (dots) formation [1]: clear foci (dots) were not formed | Glucose value in glucose tolerance test ([2]; 0 min after injection): 82.2^## mg/dL | Glucose value in glucose tolerance test ([2]; 15 min after injection): 293.6 mg/dL | Glucose value in glucose tolerance test ([2]; 30 min after injection): 327.6* mg/dL | Glucose value in glucose tolerance test ([2]; 60 min after injection): 249.4 mg/dL | Glucose value in glucose tolerance test ([2]; 90 min after injection): 262.0* mg/dL | Glucose value in glucose tolerance test ([2]; 120 min after injection): 163.0 mg/dL | GFP-AR nuclear translocation and foci (dots) formation [3]: formed the subnuclear foci (dots) | PSA mRNA (relative ratio to β-actin mRNA) [4]: 0.8 | UCP-1 mRNA (relative ratio to β-actin mRNA) [5]: 2.1* | Body weight versus high-fat diet group (in words) ([6]; 16 weeks): significantly lower than in the high-fat diet group | Increase of serum glucose and serum insulin concentrations due to the high-fat diet (in words) ([6]; 16 weeks): significantly inhibited | Accumulation of visceral fat (in words) ([6]; 16 weeks, FIG. 6): roughly the same as that of the rat of the ordinary diet group | Serum insulin concentration (average) ([6]; after 16 weeks, high-fat diet alone 0.46, ordinary diet 0.13): 0.27^# ng/mL | Body weight (average) ([6]; after 16 weeks, high-fat diet alone 36.6, ordinary diet 30.7): 34.9^### g | Serum glucose concentration (average) ([6]; after 16 weeks, high-fat diet alone 113.2, ordinary diet 75): 82.2^## mg/dL
